Test results reported in patent US20060263895A1, “Method for monitoring the stereoselectivity and relative rate of organic chemical reactions” (priority 2005, published 2006).

Assays:
[1] = Double cuvette-ISES (in situ enzymatic screening) of Co(III)-salen mediated HKR of (±)-propylene oxide; conditions: bilayer of pH 8.6 buffer over 7.2 M epoxide in CHCl3, 0.25 mol % catalyst, 15-35 min; + = (S), − = (R)
Description: Aqueous reporting layers. containing TBADH/NADP+ (cuvette 1) and HLADH/NAD+ (cuvette 2), respectively, are then added. The increase in absorbance at 340 nm can be followed for several such sets in parallel by UV-vis spectrophotometry. The kinetic data are then used to make the double-cuvette ISES predictions.
A general procedure for double cuvette-ISES to estimate both enantioselectivities and relative rates for an array of catalysts being screened in parallel is presented below. The hydrolytic kinetic resolution (HKR) of (±) propylene oxide was chosen as model reaction.
Typically, quartz cuvettes with one cm light paths and with nominal one mL volumes were used. For each catalyst, a two cuvette screen was performed, with cuvette A containing HLADH, as (S)-propanediol-selective reporting enzyme, and cuvette B containing TBADH, as a (R)-propanediol-selective reporting enzyme. For each cuvette, the final volume was 800 μL (300 μL of organic layer; 500 μL of aqueous layer).
Both cuvettes A and B had the following composition: 150 μL (2.15 mmol) of (±)-propylene oxide (7.2 M in organic layer), 150 μL of CHCl3 and 0.25 mol % Co(III)-salen catalyst. The total organic layer volume was maintained as 300 μL in all catalyst screens.
(i) Cuvette A: 0.35 U HLADH (17.6 μL from a stock solution (0.02U/μL)), 7.2 mM β-NAD+(16.5 μL from a 220 mM stock) and 465.8 μL of 50 mM sodium pyrophosphate buffer, pH 8.8. The final pH was 8.6.
(ii) Cuvette B: 0.35 U TBADH (15.8 μL from a stock solution (0.022U/μL)) of, 2.2 mM β-NADP+ (5 μL from a 220 mM stock) and 479.5 μL of 50 mM sodium pyrophosphate buffer, pH 8.8. The final pH was 8.6. The total volume of the aqueous layer was maintained as 500 μL in both cuvettes in all ISES experiments.
C. Step by Step Protocol: A catalyst stock solution (22 μmol of catalyst in 620 μL CHCl3) was made up in a 1.5 ml microcentrifuge tube, and stored on ice, along with a stock of (±)-propylene oxide, in a separate tube. The organic layers were prepared by briefly vortexing 150 μL (5.4 μmol, 0.25 mol %) of the catalyst stock in CHCl3 with 150 μL (2.15 mmol) of (±)-propylene oxide in iced microcentrifuge tubes. These were loaded into 1 mL quartz cuvettes using precooled (refrigerator), disposable 1 mL syringes. The aqueous layers were then layered on top of the organic layers, by syringe, down the walls of the cuvette.

[2] = HKR of (±)-propylene oxide under standard neat 'Jacobsen conditions' (NMR conversion, chiral HPLC ee); conditions: for % ee (HPLC) / NMR conv. (time): loading 0.25 mol %; for % ee of the 1,2-propanediol product, as observed by chiral HPLC (lower number): neat propylene oxide, 0.55 equiv. H2O, 0.25 mol % catalyst, 3 h reaction time; for NMR conv. (time): 3 h
Description: Salens in the fully synthetic, 42 member focused library that led to catalysts with appreciable activity, as indicated by double cuvette-ISES, were also evaluated ‘outside of the cuvette,’ under conditions more typically employed in HKR reactions. Specifically, these Co(III)-salen catalysts were evaluated in the HKR of (±)-propylene oxide, under neat conditions, similar to those described by Jacobsen and coworkers. Reactions were arbitrarily stopped after 3 hours, to obtain the enantiopurity of the 1,2-propanediol product at relatively early reaction times, for comparison with ISES predictions.
A typical procedure follows: To the Co(III)-salen catalyst derived from 7e (5.4 mg, 5.4 μmol, 0.25 mol %) and (±)-propylene oxide (125 mg, 2.15 mmol) at 0° C., was added water (21 μL, 1.18 mmol, 0.55 equiv.). The reaction mixture was securely capped, and allowed to warm to room temperature and stirred, most commonly for a total of 3 hours. Percent conversion at 3 hours was evaluated by 1H NMR of an aliquot (cooled to 0° C. for the transfer), in CDCl3. In most of these cases, the conversion was low enough after 3 hours, that the unreacted epoxide (bp 32° C.) was of relatively low ee, and was therefore removed by evaporation under aspirator vacuum. When the conversion was less than 5% by NMR after 3 hours, reactions were continued for longer times.
Upon termination of the reaction, the diol product was isolated by Kugelrohr distillation (˜120° C.-oven temp; 0.1 torr). To determine ee, the isolated diol was derivatized using p-bromobenzoyl imidazole (2.2 equiv.) in THF in the presence of NaH (4 equiv.) at room temperature for 5 min. The bis(p-bromobenzoate) esters obtained following sequential washes with 1 N HCl and saturated sodium bicarbonate, were of sufficient purity to be used directly for chiral HPLC analysis (Chiralcel OD, 99% […]). [drawing 23] [drawing 24] [drawing 25] [drawing 26] [drawing 27]

[3] = [total 1,2-propanediol] in aqueous ISES layer by 1H NMR; conditions: for [diol] (mM) @ 15 min: aqueous ISES layer, 1H NMR, t = 15 min; for Norm.: normalized to the catalyst derived from salen 3b (rate 1.0)
Description: The concentration of 1,2-propanediol in the aqueous layer was estimated under typical ISES conditions using 1H NMR spectroscopy. The bilayer was prepared as usual for double cuvette-ISES (Section V), but for the substitution of D2O for H2O in the buffer, and the elimination of the dehydrogenase enzymes. After 15 min, the aqueous layer (300 μL of 500 μL total) was withdrawn and mixed with a fresh solution of imidazole of known concentration (also 300 μL in D2O), as an internal concentration standard. Accumulation of the 1H NMR spectrum, followed by integration and quantitation, provided an experimental measure of [total diol] in the aqueous reporting layer at t=15 minutes for the catalyst under investigation. The observed diol concentrations for ten catalysts examined in this way are collected in Table S6, below. These have been normalized to the value for the catalyst derived from salen 3b (arbitrarily assigned a rate of 1.0).

[4] = biological target: T1, alcohol dehydrogenase from horse liver (HLADH) (Equus caballus, UniProt P00327); assay: HLADH relative velocity (enantioselectivity) and Michaelis-Menten kinetics with 1,2-propanediol; type: biochemical; conditions: for Km / Vmax: HLADH; for Km: 7.2 mM NAD+, pH 8.8, 25° C.; for Vmax: 0.049 U
T1 construct: purchased; host or cells: equine liver
T1 sequence (P00327 whole entry): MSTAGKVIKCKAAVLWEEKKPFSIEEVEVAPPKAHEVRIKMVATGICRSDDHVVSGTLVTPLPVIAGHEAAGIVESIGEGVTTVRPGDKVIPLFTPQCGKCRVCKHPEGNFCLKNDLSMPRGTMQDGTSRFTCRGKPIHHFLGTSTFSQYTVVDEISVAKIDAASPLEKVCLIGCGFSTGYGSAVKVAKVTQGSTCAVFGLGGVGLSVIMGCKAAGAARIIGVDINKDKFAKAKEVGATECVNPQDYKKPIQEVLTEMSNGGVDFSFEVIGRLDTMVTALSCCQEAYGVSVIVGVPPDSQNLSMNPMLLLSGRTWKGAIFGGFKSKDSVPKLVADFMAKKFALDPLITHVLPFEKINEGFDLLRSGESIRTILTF
Description: 1. HLADH: The enantioselectivity of […] was estimated from the ratios of the initial velocities of (R)— vs. (S)-1,2-propanediol at fixed concentrations between 4.0 and 100 mM at 25° C. Each velocity measurement was made in duplicate. The assay cuvette contained the following: 7.2 mM NAD+ (33 μL from a 220 mM stock), 0.049 U of HLADH, and various concentrations of either the (R)— or (S)-enantiomer of 1,2-propanediol. In all cases, the final volume was adjusted to 1 mL using 50 mM sodium pyrophosphate buffer, pH 8.8.
(§1) Indeed, this was confirmed by the determination of Km's for each antipode of 1,2-propanediol for each enzyme. For each antipodal diol, the same data as were used to survey dehydrogenase enantioselectivity, as a function of diol concentration, were plotted in Michaelis-Menten fashion, as v0 vs. [S] (FIGS. 3 and 4). For each dehydrogenase, the data curve for (R)-1,2-propanediol is shown by -▪-, and those for the (S)-enantiomer by -●-. In all four cases, the data were processed by […], least squares fitting to a hyperbolic function. The resulting curve fits and best fit hyperbolic equations are presented above.

[5] = biological target: T2, alcohol dehydrogenase from Thermoanaerobium brockii (TBADH) (Thermoanaerobacter brockii, UniProt P14941); assay: TBADH relative velocity (enantioselectivity) and Michaelis-Menten kinetics with 1,2-propanediol; type: biochemical; conditions: for Km / Vmax: TBADH; for Km: 2.2 mM NADP+, pH 8.8, 25° C.; for Vmax: 0.113 U
T2 construct: purchased
T2 sequence (P14941 1-352): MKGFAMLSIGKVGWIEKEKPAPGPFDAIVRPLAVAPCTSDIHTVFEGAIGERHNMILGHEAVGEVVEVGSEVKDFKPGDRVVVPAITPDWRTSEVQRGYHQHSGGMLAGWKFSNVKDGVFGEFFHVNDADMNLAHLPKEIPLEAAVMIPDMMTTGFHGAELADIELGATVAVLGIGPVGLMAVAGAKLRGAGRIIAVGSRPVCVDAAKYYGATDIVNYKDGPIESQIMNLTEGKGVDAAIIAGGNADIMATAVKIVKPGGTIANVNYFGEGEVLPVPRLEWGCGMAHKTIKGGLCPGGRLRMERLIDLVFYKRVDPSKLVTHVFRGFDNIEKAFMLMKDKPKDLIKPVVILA
Description: 2. TBADH: The enantioselectivity of […] was estimated from the ratios of the initial velocities of (R)— vs. (S)-1,2-propanediol at fixed concentrations between 3.0 and 80 mM at 25° C. Each velocity measurement was performed in triplicate. The assay cuvette contained the following: 2.2 mM NADP+ (10 μL from a 220 mM stock), 0.113 U of TBADH, and various concentrations of either (R) or (S)-enantiomer of 1,2-propanediol. In all cases, the final volume was adjusted to 1 mL using 50 mM sodium pyrophosphate buffer, pH 8.8.
as §1

[6] = reaction stopped at the time given (mostly 3 h), + = (S), − = (R)

N,N′-Bis(1′-hydroxy-2′-naphthylidene)-[1R-(1α,2α,5α)]-2-amino-7,7-dimethyl-2-bicyclo[3.3.1]heptane-ethanamine [Salen 1d]
% ee of the 1,2-propanediol product, as predicted by double-cuvette ISES (upper number) [1]: +75 % ee
% ee (HPLC) ([2]; @1 h): +81@1 h, % ee
% ee (HPLC) ([2]; @3 h): +67@3 h (S) % ee
% ee of the 1,2-propanediol product, as observed by chiral HPLC (lower number) ([2]; + = (S), − = (R)): +81 % ee
[diol] (mM) @ 15 min [3]: 91 mM
Norm. [3]: 0.95

CC(C)(C)c1cc(C=NC[C@@H](N=Cc2cc(C(C)(C)C)cc(C(C)(C)C)c2O)c2ccccc2)c(O)c(C(C)(C)C)c1 [Salen 2a, N,N′-Bis(3′,5′-di-tert-butylsalicylidene)-(1S)-phenyl-1,2-ethylenediamine]
% ee of the 1,2-propanediol product, as predicted by double-cuvette ISES (upper number) [1]: −97 % ee
NMR conv. (time) [2]: 17 (3 h) %
% ee (HPLC) [2, 6]: −93 (R) % ee
% ee of the 1,2-propanediol product, as observed by chiral HPLC (lower number) ([2]; + = (S), − = (R)): −93 % ee
[diol] (mM) @ 15 min [3]: 27.5 mM
Norm. [3]: 0.29

CC(C)(C)c1cccc(C=NC[C@H](Cc2cccc3ccccc23)N=Cc2cccc(C(C)(C)C)c2O)c1O [Salen 4b, N,N′-Bis(3′-tert-butylsalicylidene)-(1S)-(α-naphthylmethyl)-1,2-ethylenediamine]
% ee of the 1,2-propanediol product, as predicted by double-cuvette ISES (upper number) [1]: +91 % ee
NMR conv. (time) [2]: 50 (3 h) %
% ee (HPLC) [2, 6]: +59 (S) % ee
% ee of the 1,2-propanediol product, as observed by chiral HPLC (lower number) ([2]; + = (S), − = (R)): +59 % ee
[diol] (mM) @ 15 min [3]: 98 mM
Norm. [3]: 1.02

CC(O)CO (stereo not drawn) [1,2-Propanediol]
vS/vR of HLADH ([4]; 1,2-propanediol conc. 4 mM, 25° C.): 4.0
vS/vR of HLADH ([4]; 1,2-propanediol conc. 8 mM): 3.6
vS/vR of HLADH ([4]; 1,2-propanediol conc. 12 mM): 2.8
vS/vR of HLADH ([4]; 1,2-propanediol conc. 16 mM): 2.4
vS/vR of HLADH ([4]; 1,2-propanediol conc. 20 mM): 2.7
vS/vR of HLADH ([4]; 1,2-propanediol conc. 30 mM): 2.8
vS/vR of HLADH ([4]; 1,2-propanediol conc. 40 mM): 3.0
vS/vR of HLADH ([4]; 1,2-propanediol conc. 50 mM): 2.7
vS/vR of HLADH ([4]; 1,2-propanediol conc. 100 mM): 2.6
vR/vS of TBADH ([5]; 1,2-propanediol conc. 3 mM, 25° C.): 10.8
vR/vS of TBADH ([5]; 1,2-propanediol conc. 6 mM): 8.9
vR/vS of TBADH ([5]; 1,2-propanediol conc. 10 mM): 9.9
vR/vS of TBADH ([5]; 1,2-propanediol conc. 20 mM): 10.6
vR/vS of TBADH ([5]; 1,2-propanediol conc. 30 mM): 9.1
vR/vS of TBADH ([5]; 1,2-propanediol conc. 40 mM): 8.4
vR/vS of TBADH ([5]; 1,2-propanediol conc. 50 mM): 9.0
vR/vS of TBADH ([5]; 1,2-propanediol conc. 60 mM): 9.1
vR/vS of TBADH ([5]; 1,2-propanediol conc. 80 mM): 8.6

C[C@H](O)CO [(S)-1,2-propanediol]
Km [4]: 16 ± 1 mM
Vmax [4]: 819±20 mAbs min−1
Km [5]: 23 ± 4 mM
Vmax [5]: 60±4 mAbs min−1

CC(C)(C)c1cc(C=NC[C@H](Cc2ccc3ccccc3c2)N=Cc2cc(C(C)(C)C)cc(C(C)(C)C)c2O)c(O)c(C(C)(C)C)c1 [Salen 5a, N,N′-Bis(3′,5′-di-tert-butylsalicylidene)-(1S)-(β-naphthylmethyl)-1,2-ethylenediamine]
% ee of the 1,2-propanediol product, as predicted by double-cuvette ISES (upper number) [1]: +87 % ee
NMR conv. (time) [2]: 36 (3 h) %
% ee (HPLC) [2, 6]: +66 (S) % ee
% ee of the 1,2-propanediol product, as observed by chiral HPLC (lower number) ([2]; + = (S), − = (R)): +66 % ee
[diol] (mM) @ 15 min [3]: 52.5 mM
Norm. [3]: 0.55

C[C@@H](O)CO [(R)-1,2-propanediol]
Km [4]: 25 ± 2 mM
Vmax [4]: 355±9 mAbs min−1
enantiomeric preference of TBADH [5]: significant preference
Km [5]: 17 ± 2 mM
Vmax [5]: 487±18 mAbs min−1
